Measurements published in patent US20140171357A1, “VANCOMYCIN DERIVATIVES” (Seachald Pharmaceuticals, Inc., priority 2011, published 2014).
In brackets after ≈: the same amount, converted by molar mass.

What was measured:
B. anthracis Sterne 105 = format: cell-based, Bacillus anthracis; conditions: Tween 80 0.002% medium, serum condition not stated
[1] = tested on: methicillin-susceptible S. aureus (MSSA, 22); assay: MIC broth microdilution, MSSA
[2] = tested on: methicillin-resistant S. aureus (MRSA, 22); assay: MIC broth microdilution, MRSA
[3] = tested on: vancomycin-intermediate S. aureus (VISA, 5); assay: MIC broth microdilution, VISA
[4] = tested on: vancomycin-resistant S. aureus (VRSA, 6); assay: MIC broth microdilution, VRSA
[5] = tested on: heterogeneous VISA (hVISA, 10); assay: MIC broth microdilution, hVISA
S. pneumoniae (22) = assay: MIC broth microdilution, S. pneumoniae
[6] = tested on: Staphylococcus epidermidis (43 strains); assay: MIC broth microdilution, S. epidermidis; conditions: S. epidermidis (43)
[7] = tested on: VanA vancomycin-resistant E. faecium (10); assay: MIC broth microdilution, VanA E. faecium; conditions: E. faecium, VanA (10)
[8] = tested on: VanB vancomycin-resistant E. faecium (10); assay: MIC broth microdilution, VanB E. faecium; conditions: E. faecium, VanB (10)
S. aureus ATCC 25923 = assay: Neutropenic murine thigh infection model; conditions: for AUCc-t (AUC difference between control and treated animals): 24 h time kill
[9] = tested on: VanA vancomycin-resistant E. faecalis (11); assay: MIC broth microdilution, VanA E. faecalis; conditions: E. faecalis, VanA (11)
[10] = tested on: VanB vancomycin-resistant E. faecalis (12); assay: MIC broth microdilution, VanB E. faecalis; conditions: E. faecalis, VanB (12)
[11] = tested on: Staphylococcus aureus (65 strains); assay: MIC broth microdilution, S. aureus all isolates; conditions: S. aureus (65), all resistance subsets
[12] = tested on: β-hemolytic streptococci (23); assay: MIC broth microdilution, β-hemolytic streptococci
VanC enterococci (22) = assay: MIC broth microdilution, vanC-carrying enterococci; conditions: VanC enterococci (22)
[13] = tested on: vancomycin-susceptible E. faecium (21); assay: MIC broth microdilution, vancomycin-susceptible E. faecium; conditions: E. faecium, vancomycin-susceptible (21)
[14] = tested on: vancomycin-susceptible E. faecalis (23); assay: MIC broth microdilution, vancomycin-susceptible E. faecalis; conditions: E. faecalis, vancomycin-susceptible (23)
[15] = S. pneumoniae (22), MHB + lysed horse blood
[16] = 1 mg/kg single intraperitoneal dose
[17] = 4 mg/kg single intraperitoneal dose
[18] = 16 mg/kg single intraperitoneal dose
[19] = β-hemolytic streptococci (23), MHB + lysed horse blood

For `CCCCCCCCCCNCCNC1(C)CC(OC2C(Oc3c4cc5cc3Oc3ccc(cc3Cl)C(O)C3NC(=O)C(NC(=O)C5NC(=O)C(CC(N)=O)NC(=O)C(NC(=O)C(CC(C)C)NC)C(O)c5ccc(c(Cl)c5)O4)c4ccc(O)c(c4)-c4c(O)cc(O)cc4C(C(=O)NCCOCCOCCN)NC3=O)OC(CO)C(O)C2O)OC(C)C1O` (stereo not shown) [Compound 2], the MIC (B. anthracis Sterne 105) was 0.03 µg/mL (≈ 0.017 µM), the “modal MIC” value ([1]; MSSA) was 0.03 µg/mL and the “MIC 50%” value ([1]; MSSA (22)) was 0.03 µg/mL (≈ 0.017 µM). For the same compound, the “MIC 90%” value ([1]; MSSA (22)) was 0.12 µg/mL (≈ 0.0681 µM), the “modal MIC” value ([2]; MRSA) was 0.06 µg/mL and the “MIC 50%” value ([2]; MRSA (22)) was 0.06 µg/mL (≈ 0.034 µM). For the same compound, the “MIC 90%” value ([2]; MRSA (22)) was 0.12 µg/mL (≈ 0.0681 µM), the “MIC 50%” value [3] was 0.12 µg/mL (≈ 0.0681 µM) and the “MIC 50%” value [4] was 1 µg/mL (≈ 0.567 µM). The “MIC 50%” value [5] was 0.06 µg/mL (≈ 0.034 µM), the “MIC 90%” value [5] was 0.12 µg/mL (≈ 0.0681 µM) and the “fold more potent than linezolid” value (S. pneumoniae (22); S. pneumoniae) was 32 fold. For the same compound, the “MIC 50%” value (S. pneumoniae (22); [15]) was 0.015 µg/mL, the “MIC 90%” value (S. pneumoniae (22); [15]) was 0.03 µg/mL and the “MIC 50%” value [6] was 0.03 µg/mL (≈ 0.017 µM). For the same compound, the “MIC 90%” value [6] was 0.06 µg/mL (≈ 0.034 µM), the “MIC 50%” value [7] was 1 µg/mL (≈ 0.567 µM) and the “MIC 90%” value [7] was 2 µg/mL (≈ 1.13 µM). The “MIC 50%” value [8] was 0.015 µg/mL (≈ 0.00851 µM), the “MIC 90%” value [8] was 0.03 µg/mL (≈ 0.017 µM) and the “Max Kill (maximum decrease from initial infection level)” value (S. aureus ATCC 25923; [16]) was −0.28 Log10 CFU/thigh. The “AUCc-t (AUC difference between control and treated animals)” value (S. aureus ATCC 25923; [16]) was 29 (Log10 CFU/thigh)/hr, the “Max Kill (maximum decrease from initial infection level)” value (S. aureus ATCC 25923; [17]) was −1.01 Log10 CFU/thigh and the “AUCc-t (AUC difference between control and treated animals)” value (S. aureus ATCC 25923; [17]) was 40.1 (Log10 CFU/thigh)/hr. The “Max Kill (maximum decrease from initial infection level)” value (S. aureus ATCC 25923; [18]) was −1.13 Log10 CFU/thigh, the “AUCc-t (AUC difference between control and treated animals)” value (S. aureus ATCC 25923; [18]) was 55 (Log10 CFU/thigh)/hr and the “organism reduction across doses” value (S. aureus ATCC 25923; 1, 4 and 16 mg/kg intraperitoneal) was “organism reduction over the entire dose range”. The “in vivo efficacy against S. aureus (in words)” value (S. aureus ATCC 25923; neutropenic soft tissue infection model) was “bactericidal characteristics and prolonged in vivo activity”, the “MIC 50%” value [9] was 2 µg/mL (≈ 1.13 µM) and the “MIC 90%” value [9] was 4 µg/mL (≈ 2.27 µM). The “MIC 50%” value [10] was 0.06 µg/mL (≈ 0.034 µM), the “MIC 90%” value [10] was 0.12 µg/mL (≈ 0.0681 µM) and the “MIC 50%” value [11] was 0.06 µg/mL (≈ 0.034 µM). The “MIC 90%” value [11] was 0.12 µg/mL (≈ 0.0681 µM), the “fold more potent than teicoplanin and daptomycin” value ([12]; β-hemolytic streptococci) was “two- to four” and the “fold more potent than vancomycin” value ([12]; β-hemolytic streptococci) was “four- to eight”. The “MIC 50%” value [12, 19] was 0.03 µg/mL, the “MIC 90%” value [12, 19] was 0.12 µg/mL and the “MIC 50%” value (VanC enterococci (22)) was 0.06 µg/mL (≈ 0.034 µM). The “MIC 90%” value (VanC enterococci (22)) was 0.12 µg/mL (≈ 0.0681 µM), the “MIC 50%” value [13] was 0.015 µg/mL (≈ 0.00851 µM) and the “MIC 90%” value [13] was 0.03 µg/mL (≈ 0.017 µM). The “MIC 50%” value [14] was 0.06 µg/mL (≈ 0.034 µM) and the “MIC 90%” value [14] was 0.12 µg/mL (≈ 0.0681 µM).

`CNC(CC(C)C)C(=O)NC1C(=O)NC(CC(N)=O)C(=O)NC2C(=O)NC3C(=O)NC(C(=O)NC(C(=O)NCCOCCOCCOCCN(C)C)c4cc(O)c(CNCCOCCOCCOCCN(C)C)c(O)c4-c4cc3ccc4O)C(O)c3ccc(c(Cl)c3)Oc3cc2cc(c3OC2OC(CO)C(O)C(O)C2OC2CC(C)(NCc3ccc(-c4ccc(Cl)cc4)cc3)C(O)C(C)O2)Oc2ccc(cc2Cl)C1O` (stereo not shown) [Compound 23] was tested, and the MIC (B. anthracis Sterne 105) was 0.12 µg/mL (≈ 0.0576 µM).

`CNC(CC(C)C)C(=O)NC1C(=O)NC(CC(N)=O)C(=O)NC2C(=O)NC3C(=O)NC(C(=O)NC(C(=O)NCCOCCOCCOCCN)c4cc(O)c(CNCCOCCOCCOCCN)c(O)c4-c4cc3ccc4O)C(O)c3ccc(c(Cl)c3)Oc3cc2cc(c3OC2OC(CO)C(O)C(O)C2OC2CC(C)(NCc3ccc(-c4ccc(Cl)cc4)cc3)C(O)C(C)O2)Oc2ccc(cc2Cl)C1O` (stereo not shown) [Compound 24] was tested, and the MIC (B. anthracis Sterne 105) was 0.03 µg/mL (≈ 0.0148 µM).
